Experimental data reported in ChEMBL document CHEMBL1201862, “PubChem BioAssay data set” (2004).
The source made the active and inactive calls.

Key:
[1] = biological target: SUMO-activating enzyme (Homo sapiens, UniProt Q9UBT2); experiment: SUMOylation inhibitor hit validation, confirmation, SUMOylation inhibitor project, biochemical, AlphaScreen (AID 2018); type: functional
[2] = biological target: T1, G-protein coupled receptor 55 (Homo sapiens, UniProt Q9Y2T6); experiment: GPR55 agonists via beta-arrestin recruitment, primary screen, imaging, U2OS cells, beta-arrestin-GFP redistribution (AID 1961); type: functional
[3] = biological target: T2, Cannabinoid receptor 2 (Homo sapiens, UniProt P34972); experiment: SAR analysis of antagonists of the Cannabinoid Receptor 2 using an Image-Based Assay - Set 2. [Related pubchem assays (depositor defined):AID1961, AID1965]; type: functional
[4] = biological target: T2, Cannabinoid receptor 2; experiment: SAR analysis of agonists of the Cannabinoid Receptor 2 using an Image-Based Assay - Set 2. [Related pubchem assays (depositor defined):AID1961, AID1965]; type: functional
[5] = biological target: T1, G-protein coupled receptor 55; experiment: SAR analysis of selective Agonists of GPR55 using an Image-Based Assay. [Related pubchem assays (depositor defined):AID1961, AID1965]; type: functional
[6] = biological target: Cannabinoid receptor 1 (Homo sapiens, UniProt P21554); experiment: SAR analysis of antagonists of the Cannabinoid Receptor 1 using an Image-Based Assay. [Related pubchem assays (depositor defined):AID1961, AID1965]; type: functional
[7] = test system: Streptococcus sp. 'group A'; experiment: growth inhibition of control SK(-) GAS strain, dose response, counter-screen for streptokinase expression inhibitor project, luminescence, kanamycin, BacTiterGlo, confirmation (AID 1900); type: functional, organism-based
[8] = biological target: T3, Streptokinase A (Streptococcus pyogenes serotype M1, UniProt P10520); experiment: S. pyogenes streptokinase expression inhibitors, potency, dose response, plasminogen activation absorbance, OD405 (AID 1914); type: functional, Streptococcus pyogenes M1 GAS;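 note: secreted streptokinase activity via plasminogen activation per viability signal from cell pellet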
T3 sequence (P10520 whole entry): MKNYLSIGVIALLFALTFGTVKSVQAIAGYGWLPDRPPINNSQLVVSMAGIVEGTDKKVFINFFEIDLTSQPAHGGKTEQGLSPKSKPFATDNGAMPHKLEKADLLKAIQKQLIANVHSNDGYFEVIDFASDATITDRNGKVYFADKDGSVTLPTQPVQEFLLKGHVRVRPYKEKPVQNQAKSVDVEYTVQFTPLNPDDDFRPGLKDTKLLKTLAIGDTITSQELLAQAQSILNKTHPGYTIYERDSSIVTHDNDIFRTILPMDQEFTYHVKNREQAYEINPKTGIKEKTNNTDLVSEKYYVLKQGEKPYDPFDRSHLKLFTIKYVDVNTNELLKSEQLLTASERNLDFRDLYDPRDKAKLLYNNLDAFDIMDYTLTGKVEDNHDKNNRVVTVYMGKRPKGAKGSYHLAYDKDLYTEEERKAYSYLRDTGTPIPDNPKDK

[9] = growth suppression of PTEN-null colon cells, dose response, cell-based, HCT116 PTEN knockout (AID 1047); type: functional;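 note: HCT116 colon tumor cells with PTEN knocked out; cells exposed to compound for 60 hours before readout; potency for loss of cell viability measured by luminescence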
[10] = growth suppression of beta-catenin-knockout colon cells, dose response, cell-based, HCT116, human colon tumor (AID 1045); type: functional;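 note: HCT116 colon tumor cells with beta catenin knocked out; cells exposed to compound for 60 hours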
[11] = test system: Streptococcus; experiment: Group A Streptococcus viability loss, dose response, counter-screen for streptokinase expression inhibitor project, luminescence, BacTiterGlo (AID 1915); type: functional, organism-based;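 note: potency for reduction of bacterial viability or growth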
[12] = Luminescence Cell-Based Dose Retest to Confirm Inhibitors of Cancer Stem Cells. [Related pubchem assays (depositor defined):AID2717, AID2721]; type: functional; conditions: Homo sapiens
[13] = biological target: T4, Mu-type opioid receptor (Homo sapiens, UniProt P35372); experiment: MOR agonists by imaging, SAR follow-up, image-based (AID 2352); type: functional
[14] = biological target: T5, Delta-type opioid receptor (Homo sapiens, UniProt P41143); experiment: DOR agonists, SAR follow-up, image-based (AID 2370); type: functional
[15] = biological target: T6, Kappa-type opioid receptor (Homo sapiens, UniProt P41145); experiment: KOR antagonists by imaging, SAR follow-up, image-based (AID 2348); type: functional
[16] = biological target: T4, Mu-type opioid receptor; experiment: MOR antagonists, SAR follow-up, image-based (AID 2420); type: functional;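 note: compounds added before stimulation of receptor with agonist DAMGO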
[17] = biological target: T6, Kappa-type opioid receptor; experiment: KOR agonist analogs, imaging readout, SAR follow-up, image-based (AID 2359); type: functional
[18] = biological target: T7, Tyrosine-protein phosphatase non-receptor type 7 (Homo sapiens, UniProt P35236); experiment: SAR analysis of chemical inhibitors of HePTP using a Fluorescent assay - Set 2. [Related pubchem assays (depositor defined):AID1059, AID1077, AID1661, AID2085, AID521]; type: functional
T7 sequence (P35236 whole entry): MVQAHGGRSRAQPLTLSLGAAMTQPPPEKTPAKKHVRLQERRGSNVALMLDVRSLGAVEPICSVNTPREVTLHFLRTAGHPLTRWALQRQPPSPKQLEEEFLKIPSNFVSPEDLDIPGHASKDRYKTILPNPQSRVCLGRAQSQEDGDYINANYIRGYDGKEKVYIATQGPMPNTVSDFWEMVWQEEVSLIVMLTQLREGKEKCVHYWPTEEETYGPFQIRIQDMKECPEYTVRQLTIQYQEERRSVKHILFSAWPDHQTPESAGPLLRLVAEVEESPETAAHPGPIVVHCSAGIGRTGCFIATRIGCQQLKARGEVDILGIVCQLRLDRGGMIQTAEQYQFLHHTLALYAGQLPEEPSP

[19] = biological target: Dual specificity protein phosphatase 3 (Homo sapiens, UniProt P51452); experiment: SAR VHR1 Fluorescent Assay for In Vitro dose response studies Set 2. [Related pubchem assays (depositor defined):AID1654, AID1661, AID1878]; type: functional
[20] = biological target: T5, Delta-type opioid receptor; experiment: DOR antagonists, SAR follow-up, image-based (AID 2357); type: functional
[21] = biological target: T6, Kappa-type opioid receptor; experiment: kappa opioid receptor blockers, cell-based, luminescence, beta-arrestin, SAR follow-up (AID 2285); type: functional
[22] = ADAM10 inhibitors, peptide cleavage, dose response, biochemical, QFRET (AID 743254);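 note: ADAM10 enzyme with the DM2 quenched FRET peptide as substrate; EDANS fluorescence gain as the protease cuts the substrate; inhibitor potency against ADAM10 proteolytic activity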
[23] = biological target: Disintegrin and metalloproteinase domain-containing protein 17 (Homo sapiens, UniProt P78536); experiment: ADAM17 protease inhibitors, dose response, counter-screen for ADAM10 exosite inhibitor project, biochemical, quenched FRET substrate (AID 743253)
[24] = biological target: T8, Heat shock factor protein 1 (Mus musculus, UniProt P38532); experiment: inhibition of MG132-induced HSE-luciferase signal, confirmation, cell-based, NIH3T3, luminescence, dose retest (AID 2382); type: functional;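 note: NIH3T3 fibroblasts with HSF1-driven luciferase reporter stressed by proteasome inhibitor MG132; luminescence from HSF1-driven luciferase expression after 8 hours of MG132 stress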
T8 sequence (P38532 whole entry): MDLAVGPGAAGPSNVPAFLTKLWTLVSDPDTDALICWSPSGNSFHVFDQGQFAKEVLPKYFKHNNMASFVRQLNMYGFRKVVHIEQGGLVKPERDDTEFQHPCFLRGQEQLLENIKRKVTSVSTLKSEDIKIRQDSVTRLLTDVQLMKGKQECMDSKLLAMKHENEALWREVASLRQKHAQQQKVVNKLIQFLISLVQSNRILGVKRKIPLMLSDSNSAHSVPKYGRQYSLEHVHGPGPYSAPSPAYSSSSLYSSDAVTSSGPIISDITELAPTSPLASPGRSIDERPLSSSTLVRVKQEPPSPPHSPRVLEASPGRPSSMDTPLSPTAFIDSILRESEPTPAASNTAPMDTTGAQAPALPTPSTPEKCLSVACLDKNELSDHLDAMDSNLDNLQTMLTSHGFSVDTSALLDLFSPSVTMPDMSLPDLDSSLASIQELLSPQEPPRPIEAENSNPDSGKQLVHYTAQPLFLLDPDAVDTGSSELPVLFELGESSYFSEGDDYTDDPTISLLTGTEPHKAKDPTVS

[25] = biological target: Peroxisome proliferator-activated receptor gamma (Homo sapiens, UniProt P37231); experiment: PPARg partial agonists, dose response, cell-based, luminescence, assay provider (AID 504447); type: functional
[26] = biological target: T5, Delta-type opioid receptor; experiment: HTS Image-Based Screen for Antagonists of the DOR Receptor. [Related pubchem assays (depositor defined):AID1777, AID1785, AID1786, AID2133]; type: functional
[27] = biological target: T4, Mu-type opioid receptor; experiment: HTS Image-Based Screen for Agonists of the MOR Receptor. [Related pubchem assays (depositor defined):AID1777, AID1785, AID1786, AID2133]; type: functional
[28] = biological target: T5, Delta-type opioid receptor; experiment: HTS Image-Based Screen for Agonists of the DOR Receptor. [Related pubchem assays (depositor defined):AID1777, AID1786, AID2133]; type: functional
[29] = biological target: T6, Kappa-type opioid receptor; type: functional
[30] = biological target: Beta-galactosidase (Escherichia coli, UniProt Q8VNN2); type: functional
[31] = biological target: T6, Kappa-type opioid receptor; type: functional; remark: listed apart in the source
[32] = biological target: T9, Coagulation factor XII (Homo sapiens, UniProt P00748); experiment: Factor XIIa Dose Response Confirmation from Single Well HTS. [Related pubchem assays (depositor defined):AID701]; type: functional
T9 sequence (P00748 whole entry): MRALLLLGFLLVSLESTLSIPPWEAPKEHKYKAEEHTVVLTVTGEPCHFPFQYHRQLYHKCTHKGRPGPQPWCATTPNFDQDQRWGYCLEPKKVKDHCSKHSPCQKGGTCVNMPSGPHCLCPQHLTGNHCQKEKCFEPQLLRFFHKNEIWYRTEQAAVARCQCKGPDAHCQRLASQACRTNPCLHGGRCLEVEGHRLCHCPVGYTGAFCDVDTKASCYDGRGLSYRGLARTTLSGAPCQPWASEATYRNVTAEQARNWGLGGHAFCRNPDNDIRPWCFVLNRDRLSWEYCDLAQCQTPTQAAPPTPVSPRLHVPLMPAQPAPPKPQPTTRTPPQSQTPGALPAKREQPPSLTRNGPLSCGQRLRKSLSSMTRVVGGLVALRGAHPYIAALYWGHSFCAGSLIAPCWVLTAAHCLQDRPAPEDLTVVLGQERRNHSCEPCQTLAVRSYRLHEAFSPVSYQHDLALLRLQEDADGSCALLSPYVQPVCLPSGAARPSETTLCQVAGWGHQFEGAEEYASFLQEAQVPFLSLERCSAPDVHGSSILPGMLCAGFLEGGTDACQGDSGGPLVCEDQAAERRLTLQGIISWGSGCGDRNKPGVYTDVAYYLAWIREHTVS

[33] = biological target: Hexokinase HKDC1 (Homo sapiens, UniProt Q2TB90); experiment: HKDC1 hexokinase activators, dose response, biochemical, W721R variant (AID 504730); type: functional
[34] = biological target: Nonstructural protein 1 (Influenza A virus, UniProt Q194T2); type: functional, Influenza A virus (A/California/07/2009(H1N1))
[35] = biological target: Hexokinase-1 (Homo sapiens, UniProt P19367); experiment: hexokinase 1 activators, dose response, selectivity assay for HKDC1 activator project, biochemical (AID 504762); type: functional
[36] = biological target: Heat shock protein HSP 90-alpha (Homo sapiens, UniProt P07900); type: functional, organism-based
[37] = biological target: Troponin, cardiac muscle (Homo sapiens, UniProt P19429+P45379+P63316); experiment: Fluorescence-based biochemical high throughput dose response assay for activators of the calcium sensitivity of cardiac Regulated Thin Filaments (RTF). [Related pubchem assays (depositor defined):AID493008, AID493018, AID504382, AID504383]; type: protein-complex assay
[38] = biological target: T10, Runt-related transcription factor 1/Core-binding factor subunit beta (Homo sapiens, UniProt Q01196+Q13951); experiment: inhibitors of RUNX1 Runt–CBFb-SMMHC binding, primary screen, biochemical, FRET, Cerulean-Runt, Venus-CBFb-SMMHC, uHTS (AID 1434); type: protein assay;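 note: partner is the CBFb-SMMHC leukemia fusion protein rather than wild-type CBFb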
[39] = biological target: T10, Runt-related transcription factor 1/Core-binding factor subunit beta; experiment: inhibitors of RUNX1 Runt–CBFb-SMMHC binding, biochemical, TR-FRET (AID 1438); type: protein assay

CCCCCn1c(N)c(C#N)c2nc3ccccc3nc21
IC50 [1]: 15.7 µM (active)

Cc1cccc(N2CCN(C(=O)c3cc(S(=O)(=O)N(C)C)ccc3N3CCCC3)CC2)c1C
EC50 [2]: 0.508 µM (active) | IC50 [3]: 15.1 µM (inactive) | EC50 [4]: > 32 µM (inactive) | EC50 [5]: 0.263 µM (active) | IC50 [6]: 21.7 µM (inactive)

O=C(NC(NC(=S)Nc1cccc(Cl)c1)C(Cl)(Cl)Cl)OCc1ccccc1 (centres undefined)
EC50 [7]: 3.59 µM (active) | EC50 [8]: 3.92 µM (active) | EC50 [9]: 19.7 µM (active) | EC50 [10]: 19.6 µM (active) | EC50 [11]: 5.92 µM (active) | AC50 [12]: 1.53 µM (active) | EC50 [13]: > 32 µM (inactive) | EC50 [14]: > 32 µM (inactive) | IC50 [15]: 12.3 µM (inactive) | IC50 [16]: > 32 µM (inactive) | EC50 [17]: > 32 µM (inactive) | IC50 [18]: 87 µM (active) | IC50 [19]: > 100 µM (inactive) | IC50 [20]: 24.4 µM (inactive) | IC50 [21]: > 10 µM (inactive) | IC50 [22]: > 7.72 µM (active) | IC50 [23]: > 69.5 µM (inactive)

Cc1cc(C(=O)CN2C(=O)C(=O)N(Cc3ccccc3)C2=O)c(C)n1-c1ccc2c(c1)OCCO2
EC50 [24]: > 195 µM (not active) | EC50 [25]: 15 µM (active)

Cc1cn(-c2cc(NC(=O)c3ccc(C)c(NC(=O)c4cccc(-c5cnnc(O)c5)c4)c3)cc(C(F)(F)F)c2)cn1
IC50 [26]: > 32 µM (inactive) | EC50 [27]: > 32 µM (inactive) | EC50 [28]: > 32 µM (inactive) | IC50 [29]: 9.01 µM (active) | EC50 [30]: > 31.5 µM (inactive) | IC50 [31]: 5.1 µM

CC(C)CN(CC(C)C)S(=O)(=O)N1CCC(C(=O)NCCc2ccc(Cl)cc2)CC1
IC50 [32]: > 50 µM (inactive)

CC(=NNC(=S)Nc1cccc(C)c1)c1ccccn1
EC50 [33]: 2.27 µM (active) | IC50 [34]: 8.54 µM (active) | EC50 [35]: > 80 µM (inactive) | AC50 [36]: 2.25 µM (active)

Oc1[nH]nc(C(F)(F)F)c1/C=N/c1cccc(Cl)c1
EC50 [37]: > 71.5 µM (inactive)

Cn1c(=O)c(/C=N/c2ccccc2)c(O)c2ccccc21
IC50 [38]: > 100 µM (inactive) | IC50 [39]: > 100 µM (inactive)
